Experimental data as given in the Deep4Chem optical property database.

Assay: solvent given as SMILES

CCN(CC)c1ccc(/C=N/Nc2ccc(C#N)cc2)c(O)c1
emission maximum (in CC#N): 418 nm | emission maximum (in CCCCCC): 403 nm | emission maximum (in CO): 430 nm | emission maximum (in CS(C)=O): 422 nm | emission maximum (in ClC(Cl)Cl): 410 nm

Cc1c(C)c(B(c2c(C)c(C)c(C#N)c(C)c2C)c2c(C)c(C)c(N3c4ccccc4Oc4ccccc43)c(C)c2C)c(C)c(C)c1C#N
emission maximum (in c1ccc([Si](c2ccccc2)(c2ccc(-n3c4ccccc4c4ccccc43)cc2)c2ccc(-n3c4ccccc4c4ccccc43)cc2)cc1): 533 nm

CCC1(CC)c2cc(C=O)ccc2-c2ccc(N(C)C)cc21
emission maximum (in C1CCCCC1): 416 nm | emission maximum (in CC#N): 521 nm | emission maximum (in CCO): 562 nm | emission maximum (in CCOCC): 436 nm | emission maximum (in CS(C)=O): 532 nm | emission maximum (in ClCCl): 491 nm | emission maximum (in c1ccccc1): 437 nm

CCCCCCCCCCOc1ccc2cc(C3=C4C(=O)N(CC(OCC)OCC)C(c5cc6ccc(OCCCCCCCCCC)cc6o5)=C4C(=O)N3CC(OCC)OCC)oc2c1
emission maximum (in ClC(Cl)Cl): 613 nm

Cc1c(C(=O)c2ccccc2)c2ccc3cccc4c5cccc6ccc1c(c65)c2c34
emission maximum (in ClCCl): 478 nm

Cn1cc(-c2nc3ccccc3nc2C#Cc2ccc(C#N)cc2)c2ccccc21
emission maximum (in ClCCl): 520 nm

CC(=O)OC[C@@H]1O[C@H](N2C=CC3=Nc4nc(C)[n+](C)cc4CN3C2=O)[C@@H](O)[C@H]1O
emission maximum (in CC#N): 416 nm | emission maximum (in CCO): 418 nm | emission maximum (in O): 414 nm

COc1ccc(CCNC(=O)c2sc(-c3ccc(-c4cc(-c5ccc(C(C)(C)C)cc5)c(C(=O)NCCc5ccc(OC)c(OC)c5)s4)s3)cc2-c2ccc(C(C)(C)C)cc2)cc1OC
emission maximum (in ClCCl): 449 nm

CSc1sc(C(N)=O)c2nnn(C)c(=O)c12
emission maximum (in C1CCOC1): 496 nm | emission maximum (in CC#N): 505 nm | emission maximum (in CCO): 519 nm | emission maximum (in CN(C)C=O): 514 nm | emission maximum (in CO): 521 nm | emission maximum (in CS(C)=O): 527 nm

c1ccc(-c2nc(-c3ccccc3)nc(-c3ccc(-n4c5ccccc5c5cc(-c6ccc7oc8ccccc8c7c6)ccc54)cc3)n2)cc1
emission maximum (in CCOC(C)=O): 470 nm | emission maximum (in CN(C)C=O): 526 nm | emission maximum (in Cc1ccccc1): 433 nm

COc1cc(OC)c(C2=C3C(C)=CC(C)=[N+]3[B-](F)(F)n3c(C)cc(C)c32)c(OC)c1
emission maximum (in C1CCOC1): 517 nm | emission maximum (in CC#N): 513 nm | emission maximum (in CC(=O)C(C)(C)C): 517 nm | emission maximum (in CC(C)=O): 515 nm | emission maximum (in CCCCCC): 520 nm | emission maximum (in CCOC(C)=O): 511 nm | emission maximum (in CO): 515 nm

COc1ccc(C2=c3sc(-c4ccc(OC)cc4)cc3=[N+]3C2=Nc2c(-c4ccc(OC)cc4)c4sc(-c5ccc(OC)cc5)cc4n2[B-]3(F)F)cc1
emission maximum (in ClC(Cl)Cl): 814 nm

CC1(C)c2ccccc2N(c2ccc(-c3nnc(-c4ccc(N5c6ccccc6C(C)(C)c6ccccc65)cc4)o3)cc2)c2ccccc21
emission maximum (in Cc1ccccc1): 461 nm | emission maximum (in O=P(c1ccccc1)(c1ccccc1)c1ccccc1Oc1ccccc1P(=O)(c1ccccc1)c1ccccc1): 472 nm

C[Si](C)(C)c1sc([Si](C)(C)C)c2c1sc1c3sc4c(sc5c4sc4c([Si](C)(C)C)sc([Si](C)(C)C)c45)c3sc12
emission maximum (in ClC(Cl)Cl): 442 nm

CCCCCCn1c2cc(/C=C(\C#N)c3ccccc3)ccc2c2ccc(/C=C(\C#N)c3ccccc3)cc21
emission maximum (in ClC(Cl)Cl): 469.48 nm

CCCCN1C(=O)c2ccc3c4ccc5c6c(cc(Br)c(c7ccc(c2c37)C1=O)c64)C(=O)N(CCCC)C5=O
emission maximum (in ClCCl): 540 nm

CC(C)[Si](C#Cc1c2cc3ccccc3cc2c(C#Cc2ccc(Br)cc2)c2cc3ccccc3cc12)(C(C)C)C(C)C
emission maximum (in ClCCl): 663 nm

CC(=O)c1ccc2ccc3c(NCCC(=O)NCCCCCCc4nc5c(=O)[nH]c(N)nc5n4[C@H]4C[C@H](O)[C@@H](CO)O4)ccc4ccc1c2c43
emission maximum (in C1CCOC1): 523 nm | emission maximum (in CC#N): 546 nm | emission maximum (in CC(C)O): 557 nm | emission maximum (in CCO): 559 nm | emission maximum (in CN(C)C=O): 543 nm | emission maximum (in CO): 565 nm | emission maximum (in CS(C)=O): 551 nm | emission maximum (in O): 573 nm | emission maximum (in OCC(O)CO): 567 nm

N#CC(C#N)=Cc1ccc2c(c1)[nH]c1c3ccccc3sc21
emission maximum (in C1CCOC1): 547 nm | emission maximum (in CN(C)C=O): 581 nm | emission maximum (in Cc1ccccc1): 518 nm | emission maximum (in ClCCl): 544 nm

COc1ccc(C#Cc2ccc3nc4ccc(C#Cc5ccc(OC)cc5)cn4c(=O)c3c2)cc1
emission maximum (in ClCCl): 486 nm

CCCCn1c(-c2ccc(-c3nnc(-c4cccs4)o3)cc2)nc2c3ccccc3c3ccccc3c21
emission maximum (in ClCCl): 448 nm

COc1ccc(N(c2ccc(OC)cc2)c2ccc(-c3ccc(-c4ccc(-c5cccs5)c5nsnc45)s3)cc2)cc1
emission maximum (in ClC(Cl)Cl): 705 nm

COC(=O)C(CCCCNC(=O)CCNc1cccc2ccccc12)NC(C)=O (stereo not given)
emission maximum (in CCO): 417 nm
